Values joined by “and” are separate entries in the source; they are usually repeats but may differ in a detail not shown here. Equal values may be shown once.
Assays:
[1] = target: T1, PA ATP synthase (Pseudomonas aeruginosa, UniProt Q9HT15); test: NADH-driven ATP synthesis inhibition, PA inverted membrane vesicles; format: biochemical; conditions: for Hill coefficient of dose response fit, PA vesicles: inhibition of ATP synthesis activity; for IC50: inverted membrane vesicles from PA 9027, NADH-driven, end point luminescence assay
T1 construct: Inverted membrane vesicles were prepared from PA 9027; endogenous in cells; host or cells: Pseudomonas aeruginosa ATCC 9027, inverted membrane vesicles
Experimental: (§1) Vesicles were prepared from P. aeruginosa and transformed E. coli cells as previously described.[22] Briefly, cells were grown in LB liquid medium at 37 °C with shaking and harvested by centrifugation after 7 h of growth. Cultures of transformant E. coli included 100 μg/mL ampicillin. Cells were disrupted in TMG buffer (50 mM Tris-HCl, MgCl2, 10% (v/v) glycerol, pH 7.5) using an Avestin B15 homogenizer at 19,000 psi. After unbroken cells and debris were cleared by centrifugation at 9000g, inverted vesicles were collected by centrifugation at 193,000g, resuspended in TMG buffer, and stored at −80 °C. Protein concentrations were determined using a modified Lowry assay.[25]
(§2) Continuous ATP synthesis activity of inverted membrane vesicles was measured using a luciferin/luciferase luminescence assay as previously described.[22] Inhibition of ATP synthesis activity by test compounds was determined using an end point assay essentially as previously described.[18],[26] In this assay, the synthesis reaction was initiated by 2.5 mM NADH, proceeded for 10 min, and was stopped with 1% trichloroacetic acid, 2 mM CCCP, and 10 mM EDTA. Samples from each reaction were diluted 500-fold prior to the addition of luciferase since quinoline compounds are known to inhibit luciferase.[27] This dilution was sufficient to minimize inhibition of luciferase (Figure S4). Each replicate set included a positive control containing DMSO with no compound and a negative control containing carbonyl cyanide m-chlorophenyl hydrazone. Luminescence values were corrected for the background by subtracting the negative control and then normalized to the positive control within the same replicate. Dose–response curves were fit using eq 1, where activity is the relative ATP synthesis activity, [I] is the concentration of inhibitor in μg/mL, and n is the Hill coefficient. [drawing 1] 1

[2] = target: T2, PA ATP synthase cIle65Ala mutant (Pseudomonas aeruginosa, UniProt Q9HT15, I65A); test: NADH-driven ATP synthesis inhibition, DK8/pASH20 cI65A membrane vesicles; format: biochemical; conditions: for IC50: ATP synthesis IC50, DK8/pASH20 cI65A vesicles, cI65A mutant, NADH-driven, luminescence assay; for Hill coefficient of dose response fit, DK8/pASH20 cI65A vesicles: inhibition of ATP synthesis activity
T2 construct: expressed in transfected cells; host or cells: E. coli K-12 DK8 transformed with pASH20 carrying mutated atpE
Experimental: (§3) P. aeruginosa (ATCC 9027) was streaked onto a 10% TSB agar plate and incubated at room temperature for 72 h. A single colony was resuspended in 100 μL of H2O, and 5 μL was used as the DNA template for PCR with Q5 polymerase (NEB) and […] each of forward and reverse primers. Primers were complementary to regions flanking the atp operon and included sequences for HindIII and NdeI restriction sites (see the SI for primer sequences). The resulting 6.9 kbp DNA fragment was digested with HindIII and NdeI and ligated into digested vector pBR322 (New England Biolabs). The resultant pASH20(-i) plasmid contains a partial atpI gene. To complete the atpI gene, the HindII-XhoI fragment of pASH20(-i) was replaced with a synthetic fragment with a complete atpI (Twist Bioscience) to yield pASH20. The sequence of the entire operon was verified by Sanger DNA sequencing through the ligation sites. Subunit c mutations were introduced by exchanging the XhoI-BamHI fragment containing atpE with a synthetic fragment containing mutated atpE (Twist Bioscience).
as §1, §2

[3] = target: T3, PA ATP synthase expressed in E. coli DK8/pASH20 (Pseudomonas aeruginosa, UniProt Q9HT15); test: NADH-driven ATP synthesis inhibition, DK8/pASH20 membrane vesicles; format: biochemical; conditions: for IC50: ATP synthesis IC50, DK8/pASH20 vesicles, wild-type PA ATP synthase in E. coli DK8, NADH-driven, end point luminescence assay; for Hill coefficient of dose response fit, DK8/pASH20 vesicles: inhibition of ATP synthesis activity
T3 construct: expressed in transfected cells; host or cells: E. coli K-12 DK8 (lacks its own ATP synthase) transformed with pASH20 (pBR322 derivative)
Experimental: as §3, §1, §2

[4] = tested on: PA electron transport chain; test: Electron transport activity (NADH-driven H+ pumping, ACMA quenching), PA vesicles; format: biochemical, Pseudomonas aeruginosa; conditions: for inhibition of PA ETC-driven H+ pumping, in words: 0-64 µg/mL, Figure S2; for Inhibition of the PA electron transport chain IC50: PA vesicles
Experimental: Determination of electron transport activity. In an opaque black 96-well plate, inverted membrane
vesicles from PA or E. coli DK8 pASH20 were added to HMK buffer containing 0.3 µg/mL 9-amino-6-chloro-
2-methoxyacridine (ACMA) and 0-64 µg/mL test compound in DMSO. After measurement of baseline
ACMA fluorescence for 60 s, redox-driven H+ pumping was initiated by addition of NADH to 0.8 mM, and
fluorescence quenching was monitored for 120 s before addition of nigericin to 0.5 µg/mL. Relative
activity is reported as the minimum fluorescence value normalized to the maximum fluorescence value
following addition of nigericin. […]

[5] = tested on: drug-resistant P. aeruginosa BAA 2110; test: Antimicrobial susceptibility (broth microdilution), BAA 2110; format: cell-based, Pseudomonas aeruginosa; conditions: for MIC: Pseudomonas aeruginosa, BAA2110, read-out: antibacterial activity (MIC) BAA 2110
Experimental: The following are general steps, unless otherwise noted. All steps were completed using aseptic techniques. All media and glassware were sterilized via an autoclave at 121 °C for 60 min. All agitation occurred at 160 rpm in a temperature-controlled console shaker (Excella E25) at 37 °C. Full-strength tryptic soy broth (TSB) was made by dissolving 30 g of BD Bacto TSB powder in 1 L of deionized water. Purchased and acquired bacterial strains used were E. coli (ATCC 25922), P. aeruginosa (ATCC 9027), drug-resistant P. aeruginosa from ATCC Panel MP-23 (BAA 2108, BAA 2109, BAA 2110), and P. aeruginosa efflux knockout GKCW120 (PΔ6)[6] provided by Zgurskaya and co-workers at the University of Oklahoma.
Susceptibility testing was performed in biological triplicate using the broth microdilution method as outlined by the Clinical and Laboratory Standards Institute. […] Briefly, to each well, 1 μL of compound in DMSO, 89 μL of TSB, and 10 μL of bacterial inoculum, grown from a single colony in 10 mL of TSB for 4–6 h, were added. After incubation for 12–15 h at 37 °C, absorbance at 590 nm was read on a Biotek Synergy HTX Multimode plate reader. Data were processed by background subtracting the media absorbance and then normalizing the data to full bacterial growth with the vehicle only. MIC is defined as the lowest concentration of antibiotic or antibiotic/adjuvant combination that achieves ≥85% growth inhibition, which corresponds to no visible growth.

[6] = target: T4, PA ATP synthase cIle65Phe mutant (Pseudomonas aeruginosa, UniProt Q9HT15, I65F); test: NADH-driven ATP synthesis inhibition, DK8/pASH20 cI65F membrane vesicles; format: biochemical; conditions: for Hill coefficient of dose response fit, DK8/pASH20 cI65F vesicles: inhibition of ATP synthesis activity
T4 construct: expressed in transfected cells; host or cells: E. coli K-12 DK8 transformed with pASH20 carrying mutated atpE
Experimental: as §3, §1, §2

Structure (SMILES)	Hill coefficient of dose response fit, PA vesicles [1]	IC50 [1]	IC50 [2]	Hill coefficient of dose response fit, DK8/pASH20 cI65A vesicles [2]	IC50 [3]	Hill coefficient of dose response fit, DK8/pASH20 vesicles [3]	inhibition of PA ETC-driven H+ pumping, in words [4]	Inhibition of the PA electron transport chain IC50 [4] [µg/mL]	MIC [5] [µg/mL]	IC50 [6] [µM]	fold reduction in IC50, cIle65Phe mutant relative to wild type ([6]; ATP synthesis inhibition, DK8/pASH20 vesicles)	Hill coefficient of dose response fit, DK8/pASH20 cI65F vesicles [6]	antibacterial activity in words, BAA 2110 ([5]; summary of Table 1)
CSc1nc2ccccc2cc1CNCc1ccc(CN(C)C)cc1 [Compound 4, N,N-Dimethyl-1-(4-((((2-(methylthio)quinolin-3-yl)methyl)amino)methyl)phenyl)methanamine]	0.8	31.3 µM and 31.6 µM	59.5 µM and 59.7 µM	1.2	86.2 µM and 85.3 µM	1.0	some inhibition	29	> 256	12.8	greater than 6 fold	1.4	
CN(C)Cc1ccc(CNCc2cc3ccccc3nc2SCc2ccccc2)cc1 [Compound 5, 1-(4-((((2-(Benzylthio)quinolin-3-yl)methyl)amino)methyl)phenyl)-N,N-dimethylmethanamine]	0.8	1.64 µM	13.3 µM	1.7	5.38 µM	1.3	some inhibition	27	> 128	8.18		1.8	inactive

Source: publication PMC10714390, “Quinoline Compounds Targeting the c-Ring of ATP Synthase Inhibit Drug-Resistant Pseudomonas aeruginosa” (ACS Infectious Diseases, 2023)
